The text below walks through data of PMC6429117, “Discovery of Galangin as a Potential DPP-4 Inhibitor That Improves Insulin-Stimulated Skeletal Muscle Glucose Uptake: A Combinational Therapy for Diabetes” (International Journal of Molecular Sciences, 2019).

The test addresses T1, dipeptidyl peptidase-4 (DPP-4) (Homo sapiens, UniProt P27487).
T1 construct: gene DPP4; recombinant human DPP-4 enzyme
Nature of the test: fluorogenic enzyme inhibition assay (H-Gly-Pro-AMC cleavage, Sigma DPP-4 inhibitor screening kit). Type of test: biochemical.

T1 sequence (P27487 39-766): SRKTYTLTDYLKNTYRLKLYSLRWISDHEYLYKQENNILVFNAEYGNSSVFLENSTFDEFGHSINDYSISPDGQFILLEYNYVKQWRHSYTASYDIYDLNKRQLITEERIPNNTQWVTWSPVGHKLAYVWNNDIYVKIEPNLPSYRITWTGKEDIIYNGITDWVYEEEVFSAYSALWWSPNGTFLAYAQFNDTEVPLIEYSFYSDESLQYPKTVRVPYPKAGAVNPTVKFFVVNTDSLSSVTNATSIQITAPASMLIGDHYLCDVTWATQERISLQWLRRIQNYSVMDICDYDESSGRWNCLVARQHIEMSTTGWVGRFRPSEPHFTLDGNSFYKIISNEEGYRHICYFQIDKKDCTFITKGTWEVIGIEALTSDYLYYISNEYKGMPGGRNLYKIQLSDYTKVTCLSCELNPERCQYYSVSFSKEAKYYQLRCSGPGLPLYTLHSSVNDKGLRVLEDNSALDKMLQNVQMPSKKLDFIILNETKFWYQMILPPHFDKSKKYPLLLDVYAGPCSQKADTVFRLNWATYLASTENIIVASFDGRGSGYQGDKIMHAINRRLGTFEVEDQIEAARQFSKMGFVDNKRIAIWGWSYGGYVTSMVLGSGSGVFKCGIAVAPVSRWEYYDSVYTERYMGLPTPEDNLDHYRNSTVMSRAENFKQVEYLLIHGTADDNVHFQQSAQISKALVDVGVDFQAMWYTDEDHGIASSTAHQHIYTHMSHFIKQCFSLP

By IC50 is commonly meant the midpoint of a concentration-inhibition curve. Read a high IC50 as lower potency. On to `O=c1c(O)c(-c2ccccc2)oc2cc(O)cc(O)c12` [Galangin, 3,5,7-trihydroxyflavone], for which the IC50 stood at 40.1 µM.
